In ChEMBL document CHEMBL4007502, “Cytotoxic dammarane-type triterpenoids from the leaves of Viburnum sambucinum” (Bioorg Med Chem Lett, 2017) one finds IC50 data, which are given here for 16 compounds.

Holding throughout (type): functional, cell-based
In one test the test system is MCF7. The experiment in a line: Cytotoxicity against human MCF7 cells assessed as growth inhibition after 72 hrs by neutral red assay. The note with it: MCF7, 72 h.
For a further test, the system named is HepG2. Kind of test: Cytotoxicity against human HepG2 cells assessed as growth inhibition after 72 hrs by neutral red assay. Conditions: HepG2, 72 h.
Another test has as its system KB. The experiment in a line: Cytotoxicity against human KB cells assessed as growth inhibition after 72 hrs by neutral red assay.
In a further test the test system is Lu1. The experiment in a line: Cytotoxicity against human Lu1 cells assessed as growth inhibition after 72 hrs by neutral red assay. Conditions: Lu1, 72 h.

On to `CO[C@@H]1CC(=O)[C@]2(C)[C@@H]1[C@H](O)C[C@@H]1[C@@]3(C)CC[C@H](O)C(C)(C)[C@@H]3CC[C@]12C`, for which the half-inhibitory concentration (IC50) (usually the concentration that inhibits the measured activity by half) came out at 79.7 µM with MCF7, 82 µM in the test with HepG2, 78 µM in the test on KB and 80.7 µM in the test with Lu1.
Regarding `CC1(C)[C@@H](O)CC[C@]2(C)[C@H]3C[C@@H](O)[C@@H]4C=CC(=O)[C@@]4(C)[C@]3(C)CC[C@@H]12`, the IC50 is 5 µM in the test on MCF7, 5.1 µM in the test on HepG2, 5.2 µM in the test with KB and 5.2 µM in the test with Lu1.
As for `C/C(=C\CO)CCCC(C)CCCC(C)CCCC(C)C` (stereo not drawn), the IC50 in the test on MCF7, in the test with HepG2, with KB and in the test on Lu1 was greater than 100 µM in each case.
As to `C/C(=C\CC[C@](C)(O)[C@H]1CC[C@]2(C)[C@@H]1CC[C@@H]1[C@@]3(C)CCC(=O)C(C)(C)[C@@H]3CC[C@]12C)C(=O)O`, the IC50 in the test on MCF7, in the test with HepG2, with KB and with Lu1 was greater than 100 µM each time.
On to `CC1(C)[C@@H](O)CC[C@]2(C)[C@H]3C[C@@H](O)[C@@H]4[C@H](O)CC(=O)[C@@]4(C)[C@]3(C)CC[C@@H]12`, for which the IC50 in the test on MCF7, in the test on HepG2, with KB and in the test on Lu1 was greater than 100 µM each time.
Take `CC1(C)C(=O)CC[C@]2(C)[C@H]3C[C@@H](O)[C@@H]4C=CC(=O)[C@@]4(C)[C@]3(C)CC[C@@H]12`: the IC50 is 4.7 µM in the test with MCF7, 5.3 µM with HepG2, 5 µM in the test on KB and 5.1 µM with Lu1.
The like results for `C=C(C)[C@@H]1CC[C@@]2(C)[C@H]1[C@H]1CC[C@@H]3[C@@]4(C)CCC(=O)C(C)(C)[C@@H]4CC[C@@]3(C)[C@]1(C)C[C@@H]2O` were, in that order, 48 µM, 50.4 µM, 30.5 µM and 61.5 µM.
With `C/C(=C\CC[C@](C)(O)[C@@H]1[C@H]2CC[C@@H]3[C@@]4(C)CCC(=O)C(C)(C)[C@@H]4CC[C@@]3(C)[C@]2(C)C[C@@H]1O)C(=O)O`, the IC50 in the test on MCF7, with HepG2, with KB and in the test on Lu1 was greater than 100 µM throughout.
Consider `CC1(C)C(=O)CC[C@]2(C)[C@H]3C[C@@H](O)[C@@H]4[C@H](O)CC(=O)[C@@]4(C)[C@]3(C)CC[C@@H]12`, for which the IC50 was 4.3 µM in the test with MCF7, 5.7 µM with HepG2, greater than 100 µM in the test with KB and 5.8 µM in the test with Lu1.
The like results for `C[C@H]1[C@H](C)CC[C@]2(C)CC[C@]3(C)C(=CC[C@@H]4[C@@]5(C)CC[C@H](O)C(C)(C)[C@@H]5CC[C@]43C)[C@H]12` were, in that order, greater than 100 µM, greater than 100 µM, greater than 100 µM and greater than 100 µM.
The like results for `COc1c(-c2ccc(O)cc2)oc2cc(O)cc(O)c2c1=O` [ISOKAEMPFERIDE] were, in that order, 55.4 µM, 62.5 µM, 64.8 µM and 60.1 µM.
Taken in the same sequence, the figures for `O=c1cc(-c2ccc(O)c(O)c2)oc2cc(O)cc(O)c12` [LUTEOLIN] were 44.4 µM, 47.3 µM, 45.3 µM and 40.8 µM.
Consider `CC1(C)CC[C@]2(C(=O)O)CC[C@]3(C)C(=CC[C@@H]4[C@@]5(C)C[C@@H](O)[C@H](O)C(C)(C)[C@@H]5CC[C@]43C)[C@@H]2C1` [MASLINIC ACID], for which the IC50 with MCF7, in the test on HepG2, with KB and in the test with Lu1 was greater than 100 µM in each case.
As for `CC1(C)CC[C@]2(C(=O)O)CC[C@]3(C)C(=CC[C@@H]4[C@@]5(C)CC[C@H](O)C(C)(C)[C@@H]5CC[C@]43C)[C@@H]2C1` [OLEANOLIC_ACID], the IC50 with MCF7, in the test on HepG2, in the test with KB and in the test with Lu1 was greater than 100 µM in each case.
Consider `C[C@H]1[C@H](C)CC[C@]2(C(=O)O)CC[C@]3(C)C(=CC[C@@H]4[C@@]5(C)CC[C@H](O)C(C)(C)[C@@H]5CC[C@]43C)[C@H]12` [URSOLIC ACID], for which the IC50 worked out at 9.3 µM with MCF7, 40.2 µM in the test on HepG2 and 11.5 µM in the test on Lu1.
As to `C[C@H]1[C@H](C)CC[C@]2(CO)CC[C@]3(C)C(=CC[C@@H]4[C@@]5(C)CC[C@H](O)C(C)(C)[C@@H]5CC[C@]43C)[C@H]12` [UVAOL], the IC50 with MCF7 worked out at 58.2 µM; with HepG2, 53.7 µM; in the test with KB it was 37.7 µM; in the test on Lu1 it was 53.3 µM.
